SMILES strings stand for the structures. Inconclusive results and toxic doses are left out.

The test concerns L1210 leukemia ip in BDF1 mice, survival T/C. In words: NCI In Vivo Anticancer Drug Screen. Data for tumor model L1210 Leukemia (intraperitoneal) in B6D2F1 (BDF1) mice. The conditions noted are these: endpoint: mean survival time, higher = longer survival. The gist of the method: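 Transplantable tumor model; survival measured in treated vs vehicle control mice. Value = treated/control.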

Setting [1] is: dose: 100.0 mg/kg/injection, schedule: Q04DX003 (ip), vehicle: acetone.
The mark [2] stands for this setting: dose: 200.0 mg/kg/injection, schedule: Q04DX003 (ip), vehicle: acetone.
Setting [3] is: dose: 100.0 mg/kg/injection, schedule: Q01DX001 (ip), vehicle: other.
[4] abbreviates: dose: 100.0 mg/kg/injection, schedule: Q01DX009 (ip), vehicle: Klucel (hydroxypropylcellulose) (HPC).
[5] abbreviates: dose: 100.0 mg/kg/injection, schedule: Q04DX003 (ip), vehicle: Klucel (hydroxypropylcellulose) (HPC).
Where [6] appears, read: dose: 200.0 mg/kg/injection, schedule: Q01DX001 (ip), vehicle: other.
The mark [7] stands for this setting: dose: 200.0 mg/kg/injection, schedule: Q04DX003 (ip), vehicle: Klucel (hydroxypropylcellulose) (HPC).
[8] abbreviates: dose: 400.0 mg/kg/injection, schedule: Q01DX001 (ip), vehicle: other.
The mark [9] stands for this setting: dose: 400.0 mg/kg/injection, schedule: Q04DX003 (ip), vehicle: Klucel (hydroxypropylcellulose) (HPC).
The mark [10] stands for this setting: dose: 100.0 mg/kg/injection, schedule: Q01DX001 (ip), vehicle: Klucel (hydroxypropylcellulose) (HPC).
[11] abbreviates: dose: 100.0 mg/kg/injection, schedule: Q01DX001 (ip), vehicle: carboxymethylcellulose (CMC).
Where [12] appears, read: dose: 200.0 mg/kg/injection, schedule: Q01DX001 (ip), vehicle: carboxymethylcellulose (CMC).

In the case of `CSc1nc(SCc2ccc(Cl)cc2)ncc1C`, the T/C (dose: 50.0 mg/kg/injection, schedule: Q01DX Z (ip), vehicle: methylcellulose (MC)) is 92 % of control and the T/C (dose: 200.0 mg/kg/injection, schedule: Q01DX Z (ip), vehicle: methylcellulose (MC)) was 94 % of control.

As to `Cc1ccc(S(=O)(=O)NC(CCl)=NC2CCCCC2)cc1`, the T/C (dose: 100.0 mg/kg/injection, schedule: Q04DX002 (ip), vehicle: Klucel (hydroxypropylcellulose) (HPC)) was 96 % of control; the T/C (dose: 200.0 mg/kg/injection, schedule: Q04DX002 (ip), vehicle: Klucel (hydroxypropylcellulose) (HPC)) is 100 % of control; the T/C (dose: 400.0 mg/kg/injection, schedule: Q04DX002 (ip), vehicle: Klucel (hydroxypropylcellulose) (HPC)) is 103 % of control.

Consider `CCOC(=O)Cc1cc(OC)c(OC)c(OC)c1`, for which the T/C was 98 % of control under setting [1] and 94 % of control under setting [2].

For `Oc1ccc2ccccc2c1N=Nc1ccc(Cl)cc1`, the T/C by setting is: (dose: 12.5 mg/kg/injection, schedule: Q01DX015 (ip), vehicle: saline) 104 % of control; (dose: 25.0 mg/kg/injection, schedule: Q01DX015 (ip), vehicle: saline) 106 % of control; (dose: 50.0 mg/kg/injection, schedule: Q01DX015 (ip), vehicle: saline) 106 % of control; (dose: 100.0 mg/kg/injection, schedule: Q01DX009 (ip), vehicle: carboxymethylcellulose (CMC)) 87 % of control; (dose: 100.0 mg/kg/injection, schedule: Q01DX015 (ip), vehicle: saline) 98 % of control; under setting [1], 98 % of control. For the same molecule, the T/C runs as follows: (dose: 200.0 mg/kg/injection, schedule: Q01DX009 (ip), vehicle: carboxymethylcellulose (CMC)) 87 % of control; (dose: 200.0 mg/kg/injection, schedule: Q01DX015 (ip), vehicle: saline) 95 % of control; under setting [2], 94 % of control; (dose: 400.0 mg/kg/injection, schedule: Q01DX015 (ip), vehicle: saline) 90 % of control; (dose: 400.0 mg/kg/injection, schedule: Q04DX003 (ip), vehicle: acetone) 88 % of control; (dose: 800.0 mg/kg/injection, schedule: Q01DX015 (ip), vehicle: saline) 96 % of control. For the same molecule, the T/C (dose: 1600.0 mg/kg/injection, schedule: Q01DX015 (ip), vehicle: saline) was 89 % of control.

In the case of `Cc1ccccc1-n1c(C)nc2ccccc2c1=O`, the T/C by setting is: (dose: 75.0 mg/kg/injection, schedule: Q01DX001 (ip), vehicle: saline) 102 % of control; under setting [3], 94 % of control; under setting [4], 97 % of control; under setting [5], 101 % of control; (dose: 150.0 mg/kg/injection, schedule: Q01DX001 (ip), vehicle: saline) 106 % of control; under setting [6], 100 % of control. In addition, the T/C is, setting by setting: (dose: 200.0 mg/kg/injection, schedule: Q01DX009 (ip), vehicle: Klucel (hydroxypropylcellulose) (HPC)) 105 % of control; under setting [7], 105 % of control; (dose: 300.0 mg/kg/injection, schedule: Q01DX001 (ip), vehicle: saline) 107 % of control; under setting [8], 96 % of control; under setting [9], 111 % of control.

`CCCCC(NC(=O)CN)C(=O)O` (stereo not given): the T/C is, setting by setting: (dose: 25.0 mg/kg/injection, schedule: Q01DX001 (ip), vehicle: Klucel (hydroxypropylcellulose) (HPC)) 105 % of control; (dose: 50.0 mg/kg/injection, schedule: Q01DX001 (ip), vehicle: Klucel (hydroxypropylcellulose) (HPC)) 103 % of control; under setting [10], 100 % of control.

For the molecule `O=c1[nH]cccc1CCc1ccccc1`, the T/C reads like this: (dose: 100.0 mg/kg/injection, schedule: Q01DX001 (ip), vehicle: saline) 103 % of control; (dose: 200.0 mg/kg/injection, schedule: Q01DX001 (ip), vehicle: saline) 105 % of control; (dose: 400.0 mg/kg/injection, schedule: Q01DX001 (ip), vehicle: saline) 111 % of control.

Take `CSc1nn2c(SC)nnc2s1`: the T/C reads like this: (dose: 50.0 mg/kg/injection, schedule: Q01DX001 (ip), vehicle: carboxymethylcellulose (CMC)) 104 % of control; under setting [11], 101 % of control; under setting [12], 120 % of control.

As to `CCCCOc1ccc(C=Nc2ccc(C)cc2)cc1`, the T/C runs as follows: (dose: 12.5 mg/kg/injection, schedule: Q01DX009 (ip), vehicle: Klucel (hydroxypropylcellulose) (HPC)) 110 % of control; (dose: 25.0 mg/kg/injection, schedule: Q01DX009 (ip), vehicle: Klucel (hydroxypropylcellulose) (HPC)) 109 % of control; (dose: 50.0 mg/kg/injection, schedule: Q01DX009 (ip), vehicle: Klucel (hydroxypropylcellulose) (HPC)) 103 % of control; under setting [4], 93 % of control; under setting [5], 97 % of control; under setting [7], 95 % of control. Also, the T/C (dose: 400.0 mg/kg/injection, schedule: Q01DX009 (ip), vehicle: Klucel (hydroxypropylcellulose) (HPC)) was 92 % of control and the T/C under setting [9] is 107 % of control.

As for `O=CC1(C(O)C2SCCCS2)SCCCS1` (stereo not given), the T/C was 113 % of control under setting [3], 101 % of control under setting [6] and 97 % of control under setting [8].

Turning to `CCOC(=O)C1OC(n2cnc3c(N)ncnc32)C(O)C1O` (stereo not given), the T/C was 98 % of control (dose: 100.0 mg/kg/injection, schedule: Q01DX005 (ip), vehicle: saline) and 97 % of control (dose: 200.0 mg/kg/injection, schedule: Q01DX005 (ip), vehicle: saline).

With `O=C(O)CCNCc1ccccc1`, the T/C (dose: 50.0 mg/kg/injection, schedule: Q01DX009 (ip), vehicle: saline) was 100 % of control; the T/C (dose: 100.0 mg/kg/injection, schedule: Q01DX009 (ip), vehicle: saline) was 108 % of control; the T/C (dose: 100.0 mg/kg/injection, schedule: Q04DX002 (ip), vehicle: saline) is 111 % of control; the T/C (dose: 200.0 mg/kg/injection, schedule: Q01DX009 (ip), vehicle: saline) was 100 % of control; the T/C (dose: 200.0 mg/kg/injection, schedule: Q04DX002 (ip), vehicle: saline) is 97 % of control; the T/C (dose: 400.0 mg/kg/injection, schedule: Q04DX002 (ip), vehicle: saline) was 97 % of control.

Consider `COc1cc(C(C)S(=O)(=O)c2ccccc2)ccc1O` (stereo not given), for which the T/C under setting [11] is 97 % of control; the T/C under setting [12] is 97 % of control; the T/C (dose: 400.0 mg/kg/injection, schedule: Q01DX001 (ip), vehicle: carboxymethylcellulose (CMC)) is 103 % of control.

Regarding `O=C(O)/C=C/C(=O)OCCO`, the T/C runs as follows: (dose: 75.0 mg/kg/injection, schedule: Q01DX001 (ip), vehicle: carboxymethylcellulose (CMC)) 91 % of control; (dose: 150.0 mg/kg/injection, schedule: Q01DX001 (ip), vehicle: carboxymethylcellulose (CMC)) 86 % of control.

As for `CCOC(=O)C(CCC(=O)OC)C1=NC(C)(C)CC(C)O1` (stereo not given), the T/C under setting [10] was 106 % of control; the T/C (dose: 200.0 mg/kg/injection, schedule: Q01DX001 (ip), vehicle: Klucel (hydroxypropylcellulose) (HPC)) is 110 % of control; the T/C (dose: 400.0 mg/kg/injection, schedule: Q01DX001 (ip), vehicle: Klucel (hydroxypropylcellulose) (HPC)) is 97 % of control.

On to `O=C(NCCCN1CC1)C(=O)NCCCN1CC1`, for which the T/C (dose: 1.5 mg/kg/injection, schedule: Q04DX003 (ip), vehicle: Klucel (hydroxypropylcellulose) (HPC)) was 121 % of control; the T/C (dose: 2.3 mg/kg/injection, schedule: Q04DX003 (ip), vehicle: Klucel (hydroxypropylcellulose) (HPC)) was 110 % of control; the T/C (dose: 3.12 mg/kg/injection, schedule: Q04DX003 (ip), vehicle: Klucel (hydroxypropylcellulose) (HPC)) is 112 % of control; the T/C (dose: 5.3 mg/kg/injection, schedule: Q04DX003 (ip), vehicle: Klucel (hydroxypropylcellulose) (HPC)) is 166 % of control; the T/C (dose: 8.0 mg/kg/injection, schedule: Q04DX003 (ip), vehicle: Klucel (hydroxypropylcellulose) (HPC)) is 173 % of control; the T/C (dose: 12.0 mg/kg/injection, schedule: Q04DX003 (ip), vehicle: Klucel (hydroxypropylcellulose) (HPC)) is 215 % of control. Besides, the T/C by setting is: (dose: 12.5 mg/kg/injection, schedule: Q04DX003 (ip), vehicle: Klucel (hydroxypropylcellulose) (HPC)) 180 % of control; (dose: 18.0 mg/kg/injection, schedule: Q04DX003 (ip), vehicle: Klucel (hydroxypropylcellulose) (HPC)) 183 % of control.

The values above are taken from PubChem BioAssay AID248 (DTP/NCI, 2004).
